Test results as given in US20030204875A1, “Novel agrobacterium-mediated plant transformation method” (priority 1999, published 2003).
Read-outs that look alike come from different tables or passages of the source.

How the values were obtained:
[1] = test system: corn immature embryos, genotype LH198 X Hi-II; details: 20 μM silver nitrate
Description: Corn genotype LH198 X Hi-II was used. Corn immature embryos were isolated as described previously. Approximately 30 immature embryos were inoculated for each treatment with Agrobacterium strain ABI harboring plasmid pMON18365 for five minutes and placed on co-culture media for two to three days. There were 4 replicates per treatment. The four treatments included:
Treatment 1: absence of growth inhibiting agent (in both inoculation and co-culture media)
Treatment 2: absence of agent in inoculation media; presence of agent (20 μM silver nitrate) in co-culture media.
Treatment 3: presence of agent (20 μM silver nitrate) in inoculation media; absent in co-culture media
Treatment 4: presence of agent (20 μM silver nitrate) in both inoculation and co-culture media
Within each treatment, five immature embryos were used for transient analysis. This was repeated across all reps within each treatment. The number of GUS spots was determined on both the scutellar surface (scutellar side up) as shown in Table 23 and the number of GUS spots was determined on the axis side of the embryos as shown in Table 24.

wheat immature embryos = details: OD660 4.0 plus 20 mM AgNO3, co-culture three days
Experimental: (§1) The following transformation protocols included the following parameters: use of immature embryos that were pre-cultured for less than 24 h; a bacterial inoculation density >2.0 at OD660, a co-culture duration of from one to three days, the use of a higher concentration of auxin or different type of auxin/combination of growth regulators than that required during normal tissue culture, a delay period 3-7d following co-culture (with out selection pressure), no sub-culture of the original explant, a step-wise increase or decrease, depending on the crop and selection scheme and a transformation duration between 9-12 weeks.

corn immature embryos = test system: corn immature embryos
Experimental: as §1

rice immature embryos = details: OD660 2.0 plus 20 mM AgNO3, co-culture one day
Experimental: as §1

[2] = test system: immature embryos of genotype (H99×Pa 91)A188
Experimental: Immature embryos of genotype (H99×Pa 91)A188 were isolated as described. […] The Agrobacterium strain was pre-induced as described and three mls of pre-induced Agrobacterium suspension (A660 OD 0.5) supplemented with 20 ? M AgNO3 was added to a 6-well tissue culture plate as described above. Inoculation was performed for 15 minutes. The Agrobacterium suspension was removed and embryos were placed on semi-solid co-culture medium containing 20 ? M AgNO3 (final concentration). All the tissues were incubated for three days in the dark. […] Control embryos were cultured in the absence of AgNO3 in all steps of the transformation process. Transformation efficiency was calculated based on the number of embryos producing paromomycin resistant calli.

[3] = test system: immature embryos of genotype (H99×Pa 91)A188; test: Transformation efficiency of corn with different growth inhibiting agents during co-culture; assay type: cell-based; details: three days, OD 4.0
Experimental: b) Biological assay (leaf bleach assay). Leaf samples (a leaf punch) from approximately 2-week-old seedlings were placed in wells of 24-well cell culture clusters (Costar Corporation, Cambridge, Mass.). Each well was filled with 0.5 ml aqueous solution composed of 300 mg/L paromomycin (Sigma) and 100 mg/L Benlate (a fungicide made by Du Pont), 100 mg/IL Benlate alone was used as a control. Three leaf samples from the same leaf of each plant were placed in two wells containing paromomycin plus Benlate and one well containing Benlate alone, respectively. Leaf samples from non-transformed plants were used as negative controls. The samples were vacuum-infiltrated in a dessicator using an in-house vacuum system for 5 min and then the clusters were sealed tightly with parafilm before being placed under light (140 μMol m-2s-1). The results were determined after 60 hours.
(§2) Immature embryos of genotype (H99×Pa 91)A188 were isolated as described. […] The Agrobacterium strain was pre-induced as described. The inoculation was performed using a concentration of A660 OD 4.0 for 15 minutes as described. Post inoculation, Agrobacterium suspension was removed and embryos were placed on different semi-solid co-culture media supplemented with various bacteriocidal compounds. All the tissues were incubated for three days in the dark. The transformation protocol followed was as described previously (corn IE transformation) except that the 1st selection with 50 mg/L Paromomycin was replaced with 25 mg/L Paromomycin for 2 weeks and 50 mg/L Paromomycin for 2 additional weeks. Transformation efficiency was calculated based on the number of embryos producing nptII positive plants as determined by a leaf bleach assay as described earlier. Three weeks after the transformation, the quality and growth characteristics of IE-derived callus co-cultured in the presence of different growth inhibiting agents.

[4] = test system: T-DNA transfer to BMS cells
Experimental: (§3) Transformation of BMS suspension cells was performed following the protocol described in Table 8. For transforming kalanchoe leaves, a suspension of cells from Agrobacterium strain A281 was applied after performing mechanical wounding as described in White and Nester. The Agrobacterium strain, A136 harboring a binary vector pMON25457 (FIG. 3) was used as a negative control.
The efficiency of T-DNA delivery to BMS cells was measured by transient GUS expression post co-cultivtion as well as by staining GUS positive colonies appearing on a single piece of filter 4 weeks after co-culture.
(§4) During pre-induction, AgNO3 was added at two different levels (20 ? M and 40 ? M final concentration) to the pre-induction medium. The final optical density prior to the induction was adjusted to A660 (OD 0.2). Agrobacterium cells were pre-induced for 15 hours. Measurement of the optical density (measure of growth) was taken at the end of pre-induction, just prior to transformation. Agrobacterium cells pre-induced in the absence of AgNO3 were used as a control.

[5] = test system: T-DNA transfer (tumor induction) to Kalanchoe cells
Experimental: as §3, §4

[6] = test system: IE-derived callus, genotype (H99×Pa 91)A188; details: 50 μM in co-culture medium; three weeks after the transformation
Experimental: as §2

[7] = EHA 101:pMON25457 pre-induced with 20 μM AgNO3
[8] = EHA 101:pMON25457 pre-induced with 40 μM AgNO3

Compound: O=[N+]([O-])[O-].[Ag+] [AgNO3, silver nitrate]
- Average # GUS spots/embryo (axis) ([1]; Treatment 2 (inoculation)): 40.8
- Average # GUS spots/embryo (scutellar surface) ([1]; Treatment 2 (inoculation)): 82.5
- Average # GUS spots/embryo (axis) ([1]; Treatment 3 (co-culture)): 3.8
- Average # GUS spots/embryo (scutellar surface) ([1]; Treatment 3 (co-culture)): 81.8
- Average # GUS spots/embryo (axis) ([1]; Treatment 4 (both)): 8.4
- Average # GUS spots/embryo (scutellar surface) ([1]; Treatment 4 (both)): 58.9
- Transformation (%) (wheat immature embryos): 4%
- Transformation (%) (corn immature embryos; OD660 2.0 plus 20 μM AgNO3, co-culture three days): 18%
- Transformation (%) (corn immature embryos; OD660 4.0 plus 20 μM AgNO3, co-culture three days): 8%
- Transformation (%) (rice immature embryos): 23%
- % Transformation ([2]; 5d 20 μM AgNO3: present during inoculation and 5 day delay, not during 3 day co-culture): 7.8 (4/51) %
- % Transformation ([2]; 8d 20 μM AgNO3: present during inoculation, 3 day co-culture and 5 day delay): 9.0 (5/55) %
- % Transformation ([3]; 20 μM in co-culture medium): 16%
- % Transformation ([3]; 50 μM in co-culture medium): 6.3%
- Stable transformants obtained ([4]; Agrobacterium cells treated with AgNO3 during pre-induction): no stable transformants
- Average # of GUS positive colonies/filter paper [4, 7]: 0
- Results (T-DNA transfer) [4, 7]: no transfer
- Average # of GUS positive colonies/filter paper [4, 8]: 0
- Results (T-DNA transfer) [4, 8]: no transfer
- Results (T-DNA transfer) ([5]; A281 pre-induced with 20 μM AgNO3): no transfer
- Results (T-DNA transfer) ([5]; A281 pre-induced with 40 μM AgNO3): no transfer
- Culture response (callus quality) on co-culture media [6]: embryogenically the most competent callus
